According to the METLIN SMRT retention time set (Domingo-Almenara et al. 2019):

Test: gradient 5% acetonitrile 3 min, to 50% in 2 min, to 85% in 15 min, held 3 min, 100 µL/min
Conditions: column: Zorbax Extend-C18 2.1 x 50 mm; eluents: water / acetonitrile, 0.1% formic acid
Outline: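 Pure standards were analyzed in mixtures of ~100 molecules using HPLC coupled to a quadrupole time-of-flight mass spectrometer, in both positive and negative ionization mode. Separation used a Zorbax Extend-C18 column (2.1 × 50 mm, 1.8 μm) at 100 μL/min, with water and acetonitrile each containing 0.1% formic acid. Dead and dwell volumes were 40 μL and 900 μL, and data were collected over 3 months. Retention time was read from computationally picked adduct peaks, each inspected manually.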

SMILES	RP-LC retention time
Cc1ccc(NC(=O)c2cc(C3CC3)n3nccc3n2)c(C)c1	1110 s
COC(=O)c1ccc(NS(=O)(=O)c2cc3n(c2)CCN(C(C)C)C3=O)cc1	731 s
CC1(C)COc2ccc(NC(=O)CN3C(=O)c4ccccc4C3=O)cc2NC1=O	738 s
CCc1noc(-c2ccc(-n3cnc(C(=O)NC4CCCCCC4)c3)nc2)n1	968 s
CC(C)Cn1cc(S(=O)(=O)Nc2cccc(C#N)c2)c2cccnc21	916 s
O=C(Nc1cccc(-c2cn3cccnc3n2)c1)c1ccccc1F	664 s
CN1Cc2c(N)cccc2C(c2ccccc2)C1 (stereo not given)	678 s
CC1(C(=O)NCc2ccccc2)CN(S(=O)(=O)c2ccccc2)CC(=O)N1c1ccc(Cl)cc1 (stereo not given)	956 s
COc1ccc(N2CC(c3nc(-c4ccc5c(c4)OCO5)no3)CC2=O)cc1Cl (stereo not given)	966 s
CCN(CC)CCNC(=O)CC1Sc2ccccc2NC1=O (stereo not given)	591 s
CC1CCC(NC(=O)C2CCN(S(=O)(=O)c3ccc4c(c3)NC(=O)C(C)O4)CC2)CC1 (stereo not given)	876 s
Cc1cccc(-c2noc(CN3N=NC4C(=O)N(c5ccc(C(C)C)cc5)C(=O)C43)n2)c1 (stereo not given)	1150 s
Cc1ccccc1OCC(=O)N1CCN(c2nc(CN3CCCCC3)cs2)CC1	895 s
Fc1ccc(CN2CCC(Cc3nc(-c4cccnc4)n[nH]3)C2)c(F)c1 (stereo not given)	564 s
O=C(NCCc1c[nH]c2ccccc12)c1ccc(N2C(=O)CCS2(=O)=O)cc1Cl	777 s
O=C(CSc1ncc(CO)n1CC(=O)NC1CC1)Nc1ccc(F)cc1F	565 s
CC(C)n1c(=O)c(NCCc2ccc(Cl)cc2)nc2ccncc21	727 s
CN(CC1CCOCC1)C(=O)Nc1cc(F)cc(F)c1	754 s
CC(NC(=O)C1CCN(c2cncnc2N2CCCC2)CC1)c1ccccc1 (stereo not given)	660 s
CCC(C(=O)N1CCN(c2cc(-c3ccccc3)ncn2)CC1)c1ccccc1 (stereo not given)	649 s
O=C(Nc1cnc2c(c1)CCC2)C1CCCC1	522 s
COc1cc(Cl)ccc1-c1nc(-c2cccc(-c3ccnn3C)c2)no1	1190 s
COc1cccc(NC(=O)Cn2nc3c(Oc4cccc(F)c4)nccn3c2=O)c1	839 s

SMILES	RP-LC retention time
COCc1nc(N2CCN(c3ccc(OC)cc3)CC2)ncc1C(=O)O	666 s
O=C(CN1C(=O)C2CCCCN2c2ccc(S(=O)(=O)N3CCCC3)cc21)NCCN1CCCC1 (stereo not given)	636 s
COc1ccccc1Oc1ccc(S(=O)(=O)Nc2cccc(C(C)=O)c2)cc1	887 s
Cc1cc(Cl)ccc1S(=O)(=O)NC1CCc2nn(C)c(=O)n2CC1 (stereo not given)	708 s
Cc1ccc(Nc2cc(-n3ccnc3)ncn2)cc1	651 s
COC(=O)c1ccc(NC(=O)c2cnc(-c3ccc(C)cc3)nc2-c2ccncc2)cc1	961 s
Cc1ccc(CN(C(=O)COc2ccc(Cl)c(C)c2)C2CCS(=O)(=O)C2)o1 (stereo not given)	979 s
O=C(NCC1(N2CCOCC2)CCOC1)Nc1ccc2c(c1)OCCO2 (stereo not given)	589 s
O=C(c1ccco1)N1CCCC(c2cc(-c3ccc(F)cc3)n[nH]2)C1 (stereo not given)	674 s
COc1ccc(-c2cc3c4nnc(SCC(=O)Nc5cccc(Cl)c5)n4ccn3n2)cc1	911 s
CC1=C(c2ccccc2)S(=O)(=O)N=C1N1CCCN(C(=O)c2ccccn2)CC1	693 s
COc1ccccc1N1CCN(C(=O)C2CCN(c3nnc(-c4ccccc4)o3)CC2)CC1	807 s
Cc1nnc(NC(=O)CSc2nnc(-c3ccc(Cl)cc3)o2)s1	772 s
CCOc1cc(C(=O)Nc2cc(-c3cn4cccnc4n3)ccc2OC)cc(OCC)c1OCC	831 s
COc1ccccc1-c1nc(Cn2cccc(S(=O)(=O)N3CCCC3)c2=O)no1	736 s
O=C(C1CCC1)N1CCC(c2noc(-c3ccncc3)n2)C1 (stereo not given)	693 s
CCOc1ccc2nc(C(=O)NC(C)(C)C)cn2n1	802 s
CCN(Cc1ccccc1)c1ccc(-c2noc(CN3CCOCC3)n2)cn1	826 s
CCN(CC)S(=O)(=O)N1CCC(C(=O)Nc2cccc(CCc3nc4ccc(C)cc4[nH]3)c2)CC1	708 s
COC1=CC(=O)OC(/C=C/c2ccccc2)C1 (stereo not given)	883 s
CN1CCN(S(=O)(=O)c2cccc(-c3nc(-c4ccccc4)no3)c2)CC1	694 s
O=C(CN1C(=O)C2CCCCN2c2ccc(C(=O)N3CCCC3)cc21)Nc1ccncc1 (stereo not given)	622 s
O=C(NC1CCCCC1N1C(=O)CSC1=O)c1ccco1 (stereo not given)	668 s

SMILES	RP-LC retention time
COc1cc(NC(=O)Cn2ccc3ccc(-c4nnc(C)o4)cc32)cc(OC)c1OC	726 s
CCN(Cc1ccccc1)C(=O)c1ncn2c1C(=O)N(C1CC1)C(C)(C(=O)NCc1ccccc1)C2 (stereo not given)	742 s
CCN(CC)C(=O)c1ccc(O)c(OC)c1	718 s
O=C(c1cn(-c2cc(-c3nc(C4CC4)no3)ccn2)cn1)N1CCCC1	767 s
CN(C)C(=O)C1CCN(c2nc3ccc(-c4ccsc4)nc3s2)CC1	839 s
CC(C)CN1CCn2cc(S(=O)(=O)NCc3ccc(F)c(Cl)c3)cc2C1=O	855 s
COCCN(CC(=O)N1CCc2sccc2C1COc1cccc(F)c1)C(=O)C(C)C (stereo not given)	912 s
Cc1cc(C2CCCN2C(=O)Nc2ccc(C)c(F)c2)no1 (stereo not given)	818 s
Cc1ccsc1C(=O)N1C[C@H]2C[C@H](C1)[C@H]1CCCC(=O)N1C2	754 s
CCC(C)n1c(=O)c2ccccc2n(Cc2nc(-c3ccccc3Cl)no2)c1=O (stereo not given)	1170 s
COc1ccc(-c2nc3cc(C)ccn3c2NC(=O)CC(C)(C)C)cc1	681 s
Cc1ccc(Nc2nc(C(=O)NC(C)Cc3ccco3)nc3ccccc23)cc1 (stereo not given)	873 s
O=[N+]([O-])c1ccc2c(c1)CN(S(=O)(=O)c1cccs1)CC2	878 s
Cn1cc(CN2CCCC(COc3ccccc3C(=O)NC3CC3)C2)c2ccccc21 (stereo not given)	686 s
CCOC(=O)c1c(S(=O)(=O)N2CCC(C(=O)Nc3ccccc3OC)CC2)c(C)n(C)c1C	850 s
COc1cccc2c1C(=O)c1c(O)c3c(c(O)c1C2=O)C[C@@](O)(/C(C)=N\O)C[C@@H]3OC1CC(N)C(O)C(C)O1 (stereo not given in full)	681 s
CCOC(=O)CCNC(=O)N1CCC(N2CCN(Cc3ccc(C)cc3)C(=O)C2=O)CC1	681 s
Cc1ccccc1CNC(=O)Cc1cn(C)c2ncccc12	689 s
CC(=O)Nc1ccc(S(=O)(=O)NCC2CCN(Cc3cccs3)CC2)c(C)c1	547 s
COc1cccc(CNC(=O)c2ccc3c(c2)nc2n3CCN(Cc3ccccc3)C2=O)c1	777 s
CC(C)n1c(N2CCN(C(=O)c3ccc(Br)o3)CC2)cc(=O)n(C(C)C)c1=O	870 s
CCNC(=O)NCCc1cn(CCOC)c2ncccc12	579 s
Cc1ccc(NC(=O)Cn2c(=O)nc(N3CCC(C)CC3)c3ccccc32)c(C)c1	913 s

SMILES	RP-LC retention time
CC1Oc2ccccc2N(Cc2nc(-c3ccc4c(c3)OCO4)no2)C1=O (stereo not given)	1010 s
O=C1NC2(CCN(C(=O)Nc3ccccc3)CC2)Oc2ccccc21	721 s
Cc1cc2c(cc1S(=O)(=O)N1CCCC1C(=O)N1CCc3ccccc31)OCC(=O)N2 (stereo not given)	788 s
Cc1ccc(-c2nnc3ccc(N4CCC(C(=O)NC5CC5)CC4)nn23)cc1	736 s
Cc1cccc(C)c1NC(=O)N(C)CC1CCOCC1	692 s
O=c1ccc(N2CCCC(NS(=O)(=O)c3ccc(F)c(F)c3)C2)nn1CC1CC1 (stereo not given)	851 s
CC(=O)c1cccc(NC(=O)Cn2c(N3CCc4ccccc4C3)nc(C)cc2=O)c1	723 s
CCOc1ccc(-n2nnc(C(=O)O)c2COC)cc1	734 s
CCOC(=O)N1CCc2c(sc(NC(=O)C3CCCN(S(C)(=O)=O)C3)c2C#N)C1 (stereo not given)	767 s
CN(C(=O)CSc1nc(-c2ccccc2)no1)c1ccc(F)cc1	1020 s
COc1ccc(C2(C(=O)N3CCC(Oc4ccc(-c5noc(C)n5)cc4)C3)CC2)cc1 (stereo not given)	913 s
CCOC(=O)c1cc2c([nH]c1=O)CC(c1ccccc1)CC2=O (stereo not given)	735 s
O=C(NCC1CCCO1)c1ccc([N+](=O)[O-])cc1Cl (stereo not given)	664 s
CCN(C(=O)C(=O)c1c[nH]c2ccccc12)c1cccc(Cl)c1	882 s
CCCCn1cnc2c(-c3ccccc3)cn(CC(=O)Nc3ccc(Cl)cc3)c2c1=O	1120 s
COc1nccnc1N1CCC(NC(=O)c2ccc3cc[nH]c3c2)C1 (stereo not given)	633 s
Cc1nc2ccc(C(=O)N3CCCCCC3)cc2nc1C	605 s
Cc1cc(=O)n(CC(=O)NCCC2=CCCCC2)c(N2CCCCC2)n1	734 s
CC(C)c1ccc(NC(=O)CN2C(=O)C(C(=O)N3CCCC3)Sc3ccccc32)cc1 (stereo not given)	1140 s
CCCCN(C)C(=O)C1CCN(c2nccc(C)n2)CC1	674 s
CC(=O)N1CCc2cc(N3CC(C(=O)NCCC(C)C)CC3=O)ccc21 (stereo not given)	669 s
